Data as given in the NIST ThermoML archive (doi:10.1021/acs.jced.5b00860).

Conditions: for surface tension liquid-gas: Maximal bubble pressure; for viscosity / mass density / electrical conductivity: 101.33 kPa, Liquid; for viscosity: Concentric cylinders viscometry; for mass density: Vibrating tube method; for electrical conductivity: Alternating current cell with electrodes

CCCn1cc[n+](C)c1C.O=S(=O)([O-])O [2,3-dimethyl-1-propylimidazolium hydrogen sulfate]
Conditions | electrical conductivity [S/m] | mass density [kg/m3] | surface tension liquid-gas [mN/m] | viscosity [mPa·s]
288.15 K | – | 1239.79 | 47.7 | 500.4
293.15 K | – | 1236.23 | 47.4 | 362.3
298.15 K | 0.123 | 1232.82 | 47.2 | 263.7
303.15 K | 0.162 | 1229.24 | 46.9 | 194.2
308.15 K | 0.211 | 1225.73 | 46.6 | 142.2
313.15 K | 0.267 | 1222.13 | 46.3 | 107
318.15 K | 0.333 | 1218.82 | 46.1 | 81.27
323.15 K | 0.409 | 1215.29 | 45.8 | 62.04
328.15 K | 0.496 | 1211.74 | 45.5 | 47.83
333.15 K | 0.6 | 1208.35 | 45.2 | 35.71
338.15 K | 0.711 | 1204.81 | 44.9 | 27.47
343.15 K | 0.832 | 1201.46 | 44.7 | 21.17

CCCCn1cc[n+](C)c1C.O=S(=O)([O-])O [1-butyl-2,3-dimethylimidazolium hydrogen sulfate]
Conditions | electrical conductivity [S/m] | mass density [kg/m3] | surface tension liquid-gas [mN/m] | viscosity [mPa·s]
288.15 K | – | 1217.09 | 45.3 | 628.5
293.15 K | – | 1213.74 | 45 | 469.7
298.15 K | 0.1 | 1210.61 | 44.8 | 355.2
303.15 K | 0.135 | 1207.35 | 44.5 | 271.3
308.15 K | 0.179 | 1203.89 | 44.2 | 206.3
313.15 K | 0.231 | 1200.63 | 43.9 | 157.2
318.15 K | 0.292 | 1197.49 | 43.7 | 121.8
323.15 K | 0.36 | 1194.03 | 43.4 | 95.86
328.15 K | 0.441 | 1190.8 | 43.1 | 74.49
333.15 K | 0.531 | 1187.57 | 42.8 | 60.7
338.15 K | 0.631 | 1184.29 | 42.6 | 46.52
343.15 K | 0.739 | 1180.99 | 42.3 | 38.13

CCCCC[n+]1ccn(C)c1.O=P([O-])(O)O [1-methyl-3-pentylimidazolium dihydrogen phosphate]
Conditions | electrical conductivity [S/m] | mass density [kg/m3] | surface tension liquid-gas [mN/m] | viscosity [mPa·s]
288.15 K | 0.164 | 1148.62 | 41.8 | 327.8
293.15 K | 0.201 | 1145.42 | 41.5 | 259.1
298.15 K | 0.243 | 1142.29 | 41.2 | 205
303.15 K | 0.29 | 1139.09 | 40.9 | 162.6
308.15 K | 0.341 | 1135.81 | 40.6 | 130
313.15 K | 0.398 | 1132.55 | 40.3 | 103.3
318.15 K | 0.457 | 1129.43 | 40 | 84.04
323.15 K | 0.523 | 1126.27 | 39.7 | 68.45
328.15 K | 0.588 | 1122.94 | 39.3 | 56.55
333.15 K | 0.665 | 1119.93 | 39 | 46.91
338.15 K | 0.744 | 1116.63 | 38.7 | 38.55
343.15 K | 0.825 | 1113.49 | 38.4 | 31.43

CCCCCn1cc[n+](C)c1C.O=S(=O)([O-])O [2,3-dimethyl-1-pentylimidazolium hydrogen sulfate]
Conditions | electrical conductivity [S/m] | mass density [kg/m3] | surface tension liquid-gas [mN/m] | viscosity [mPa·s]
288.15 K | – | 1196.47 | 42.5 | 772.4
293.15 K | – | 1193.23 | 42.2 | 597
298.15 K | 0.075 | 1190.07 | 42 | 462.8
303.15 K | 0.105 | 1186.89 | 41.7 | 358.7
308.15 K | 0.145 | 1183.89 | 41.5 | 281.1
313.15 K | 0.197 | 1180.69 | 41.2 | 224.2
318.15 K | 0.257 | 1177.69 | 40.9 | 176
323.15 K | 0.324 | 1174.61 | 40.7 | 140.1
328.15 K | 0.399 | 1171.29 | 40.4 | 113
333.15 K | 0.485 | 1168.33 | 40.1 | 90
338.15 K | 0.573 | 1165.21 | 39.9 | 73.77
343.15 K | 0.675 | 1162.18 | 39.6 | 57.54

CCn1cc[n+](C)c1C.O=S(=O)([O-])O [1-ethyl-2,3-dimethylimidazolium hydrogen sulfate]
Conditions | electrical conductivity [S/m] | mass density [kg/m3] | surface tension liquid-gas [mN/m] | viscosity [mPa·s]
288.15 K | – | 1261.94 | 50.4 | 375
293.15 K | – | 1258.09 | 50.1 | 263.6
298.15 K | 0.15 | 1254.43 | 49.8 | 186
303.15 K | 0.193 | 1250.77 | 49.5 | 134.9
308.15 K | 0.244 | 1247.08 | 49.3 | 98.41
313.15 K | 0.308 | 1243.3 | 49 | 72.94
318.15 K | 0.377 | 1239.59 | 48.7 | 53.72
323.15 K | 0.458 | 1235.8 | 48.4 | 40.12
328.15 K | 0.554 | 1232.2 | 48.1 | 30.2
333.15 K | 0.665 | 1228.52 | 47.8 | 22.37
338.15 K | 0.787 | 1224.82 | 47.5 | 17.96
343.15 K | 0.925 | 1221.18 | 47.2 | 12.57

CCCCn1cc[n+](C)c1.O=C([O-])O [1-butyl-3-methylimidazolium hydrogen carbonate]
Conditions | electrical conductivity [S/m] | mass density [kg/m3] | surface tension liquid-gas [mN/m] | viscosity [mPa·s]
288.15 K | 0.274 | 1164.1 | 34.9 | 122.9
293.15 K | 0.322 | 1160.5 | 34.4 | 94.8
298.15 K | 0.376 | 1157.08 | 34 | 73.73
303.15 K | 0.439 | 1153.64 | 33.5 | 57.64
308.15 K | 0.496 | 1150 | 33.1 | 45.33
313.15 K | 0.557 | 1146.51 | 32.6 | 35.86
318.15 K | 0.622 | 1142.95 | 32.2 | 28.85
323.15 K | 0.689 | 1139.45 | 31.7 | 22.93
328.15 K | 0.755 | 1136.1 | 31.2 | 18.54
333.15 K | 0.823 | 1132.53 | 30.8 | 14.81
338.15 K | 0.893 | 1128.92 | 30.4 | 11.88
343.15 K | 0.963 | 1125.52 | 29.9 | 10.04

CCC[n+]1ccn(C)c1.O=P([O-])(O)O [1-methyl-3-propylimidazolium dihydrogen phosphate]
Conditions | electrical conductivity [S/m] | mass density [kg/m3] | surface tension liquid-gas [mN/m] | viscosity [mPa·s]
288.15 K | 0.469 | 1202.41 | 46.4 | 99.38
293.15 K | 0.536 | 1198.96 | 46.1 | 78.41
298.15 K | 0.613 | 1195.45 | 45.8 | 61.92
303.15 K | 0.693 | 1191.95 | 45.5 | 49.58
308.15 K | 0.785 | 1188.45 | 45.2 | 39.3
313.15 K | 0.879 | 1184.95 | 44.9 | 32.16
318.15 K | 0.977 | 1181.43 | 44.6 | 25.81
323.15 K | 1.08 | 1177.89 | 44.3 | 21.02
328.15 K | 1.19 | 1174.36 | 44 | 17.17
333.15 K | 1.3 | 1170.8 | 43.7 | 13.85
338.15 K | 1.41 | 1167.24 | 43.4 | 11.43
343.15 K | 1.55 | 1163.66 | 43.1 | 10.04

CCCCCn1cc[n+](C)c1.O=C([O-])O [3-methyl-1-pentylimidazolium hydrogen carbonate]
Conditions | electrical conductivity [S/m] | mass density [kg/m3] | surface tension liquid-gas [mN/m] | viscosity [mPa·s]
288.15 K | 0.143 | 1148.91 | 31.9 | 179.6
293.15 K | 0.193 | 1145.21 | 31.4 | 138.9
298.15 K | 0.248 | 1141.79 | 30.9 | 108.6
303.15 K | 0.305 | 1138.28 | 30.4 | 85.09
308.15 K | 0.367 | 1134.77 | 29.9 | 66.77
313.15 K | 0.428 | 1131.33 | 29.4 | 53.12
318.15 K | 0.489 | 1127.75 | 29 | 42.53
323.15 K | 0.553 | 1124.28 | 28.5 | 33.29
328.15 K | 0.612 | 1120.73 | 28 | 26.92
333.15 K | 0.671 | 1117.27 | 27.5 | 21.42
338.15 K | 0.733 | 1113.75 | 26.9 | 17.65
343.15 K | 0.794 | 1110.3 | 26.5 | 14.71

CCCCn1cc[n+](C)c1.O=P([O-])(O)O [1-butyl-3-methylimidazolium dihydrogen phosphate]
Conditions | electrical conductivity [S/m] | mass density [kg/m3] | surface tension liquid-gas [mN/m] | viscosity [mPa·s]
288.15 K | 0.303 | 1183.24 | 44.2 | 198.7
293.15 K | 0.359 | 1179.91 | 43.9 | 159
298.15 K | 0.419 | 1176.54 | 43.6 | 125.6
303.15 K | 0.483 | 1173.18 | 43.2 | 101.1
308.15 K | 0.555 | 1169.69 | 42.9 | 80.78
313.15 K | 0.628 | 1166.3 | 42.6 | 65.21
318.15 K | 0.707 | 1162.8 | 42.3 | 53.62
323.15 K | 0.788 | 1159.53 | 42 | 43.67
328.15 K | 0.868 | 1156.13 | 41.7 | 36.75
333.15 K | 0.965 | 1152.67 | 41.4 | 29.77
338.15 K | 1.06 | 1149.36 | 41.1 | 25.21
343.15 K | 1.16 | 1146.03 | 40.8 | 20.96
